Results: US20200003760A1, “IN-VITRO METHODS FOR CLASSIFYING DRUGS ACCORDING TO THEIR POTENTIAL TO CAUSE LIVER CELL INJURY” (Board of Trustees of Michigan State University, priority 2018, published 2020)
“Also recorded” adds a separate entry of the source. Where two headings read alike, the source gives them in different places.

Columns and labels:
[1] = cited from earlier work; for True classification: IDILI in human patients; for IDILI liability: criteria of Xu et al. (2008); for pattern of liver injury in humans: human patients
[2] = maximal plasma concentration after pharmacologic dosing in human patients; cited from earlier work
HepG2 cells = assay: Drug/cytokine-induced cytotoxicity (% LDH release) concentration-response in HepG2 cells; type: cell-based, human; set-up: key to Deltadiff: LDH release percentage points (drug/TNF Delta minus drug/VEH Delta); conditions: for R10 / R10 IFN / R10 TNF / R10 TNF/IFN: 10 percent increase in LDH response above min, 0 when D10 = 0; for R10 / D10 (LDH rise of at least 10 points, yes/no) / Emax / EC10: drug alone (VEH); for R10 IFN: with IFN; for R10 TNF: with TNF; for R10 TNF/IFN / EC10 TNF/IFN: with TNF and IFN; for Deltadiff: Delta of drug/TNF curve minus Delta of drug/VEH curve (LDH percentage); for cytotoxic interaction of drug with TNF: TNF 10 ng/ml; for cytotoxicity of drug on its own (LDH release): absence of cytokines; for D10 (LDH rise of at least 10 points, yes/no) / Emax: Homo sapiens, HepG2; for TNF change: D10TNF − D10VEH; for EC10: value corresponding to 10% of Delta (max-min); for EC10 / EC10 TNF / EC10 TNF/IFN / EC10 IFN: NA = no significant increase; for EC10 TNF / EC10 TNF/IFN / EC10 IFN: value corresponding to 10% of Delta; for EC10 TNF: with TNF 10 ng/ml; for effect of IFN coexposure on the drug/TNF cytotoxic interaction: TNF and IFN 10 ng/ml each; for EC10 IFN: with IFN 10 ng/ml
Method: Cells were passed or used for experiments when they reached approximately 80% confluence. Cells were used at passage 6-16.
HepG2 cells were plated at a density of 4×10^4 cells per well in black-walled, 96-well, tissue culture plates and were allowed to attach overnight before being treated with compounds. Drugs were reconstituted in vehicles consisting of sterile water or DMSO (concentration less than 0.5%). Cells were treated with various concentrations of the drug or its vehicle (control) alone or in combination with the cytokines TNF (10 ng/ml) and/or IFN (10 ng/ml) or their PBS vehicle (VEH). Cytotoxicity was evaluated as lactate dehydrogenase (LDH) activity released from the cells into culture medium using the Homogeneous Membrane Integrity Assay kit from Promega (Madison, Wis.).
Concentration-response curves were generated for 24 drugs, 14 of which are associated with human IDILI and 10 of which are not. […] This was necessary because four-parameter logistic modeling used in the statistical analysis requires well defined, sigmoidal concentration-response curves. Cells were exposed to drug/cytokine combinations for 24 hours. For analysis of drug concentration-response data, concentrations of each drug were expressed as a fraction of its Cmax.
Defining covariates: four-parameter logistic model. In the first phase, variables (potential covariates) for use in the classification analysis were defined from the analysis of drug concentration-response data. Initially, a one-way analysis of variance (ANOVA) was used as an omnibus test to determine if a particular treatment (e.g. drug alone or in combination with TNF and/or IFN) caused a significant change in LDH release relative to baseline (i.e., LDH release in the absence of drug, hereafter designated “min”). The criterion for significance for the ANOVA was set at α=0.01. A 1% level of significance was used to rule out more vigorously marginal relationships between concentration and response.
where LDH(x) is the percentage of LDH released at a given concentration x; x=[drug]/Cmax; min=the % LDH release at 0 drug concentration (i.e., baseline); and max=the maximal LDH response (i.e., maximum % LDH release).
where D10 is a categorical variable related to reaching a threshold LDH response above which a drug is classified as positively associated with IDILI. D10 is defined as 0 if Delta<10% LDH release and as 1 if Delta≥10% LDH release.
The base covariate R10 represents the [drug]/Cmax value associated with an increase in 10 LDH percentage points above min for a particular treatment condition and was determined by the equation:
R10 was considered to be 0 when the Delta<10% LDH (i.e. when D10=0).
EC50 quotient, EC10 quotient and R10 quotient represent the ratio between the EC50, EC10 or R10 of the drug/cytokine concentration-response curve and the respective value for the drug/VEH concentration-response curve. In some instances, the value derived from this calculation is indeterminate (i.e. when the denominator=0). In order to incorporate the quotient values into the classification models described below, the categorical variable “Q” was used to eliminate the possibility of the quotient being indeterminate. Q is defined as 0 if Delta VEH and/or Delta cytokine is <10% LDH and 1 if both Delta VEH and Delta cytokine are ≥10% LDH. […] The same condition was applied for calculation of EC10 quotient and R10 quotient.
Deltadiff represents the difference between the Delta of the drug/cytokine concentration-response curve and the Delta of the drug/VEH curve. In other words, Deltadiff=(Delta cytokine)−(Delta VEH). FIG. 1 graphically illustrates several of the covariates defined above. […] In addition to the covariates derived from the concentration-response curves, the maximal therapeutic plasma drug concentration (Cmax) in human patients was used in some models (Table 1).

[3] = Logistic regression classification model: probability that a drug is associated with IDILI; set-up: species or system human; conditions: for Estimated probability: probability that drug is associated with IDILI, covariates Deltadiff, EC50 VEH, EC50 TNF, Delta VEH, Cmax, optimal cutoff 0.46; for classification by the best-performing model: optimal cutoff
From the text: Classification modeling using defined covariates. In the second phase of analysis, classification models were developed using logistic regression with covariates as independent variables in the analysis and known IDILI classification as the dependent variable. A model selection process was used to determine if a covariate or set of covariates is associated with IDILI liability. Covariates were first evaluated individually to determine how well a particular covariate classified drugs according to IDILI liability, and then covariates were evaluated in combination. Combinations of covariates were selected to maximize the ability of the model to distinguish between drugs associated or not with IDILI. Specifically, covariates that describe changes in efficacy (Delta, Deltadiff, etc.) were paired with covariates that describe changes in potency (EC50, EC10, R10, etc.) to find covariate combinations that led to models that most accurately discriminated between drugs that are and are not associated with IDILI. […] The logistic regression models follow the equation: […]
where ŷi is the calculated (predicted) probability that drug i with a vector of covariates xi is associated with IDILI. The β coefficients (β0, the regression intercept; and βi, the regression slopes for model covariates, xi) were derived from the logistic regression models using 1) combinations of the covariates (xi) generated by concentration-response modeling for each of the 24 drugs evaluated in this study, and 2) the true IDILI classification for the dependent variable yi (i.e., 1 for IDILI+drugs and 0 for IDILI-drugs). […] This occurs when a covariate almost perfectly separates observations into the appropriate categories. […] When separation or quasi-complete separation occurs, use of the standard method (i.e., maximum likelihood estimation) provides biased, unreliable estimates of βi.
Receiver operating characteristic (ROC) analysis. In the third phase of the statistical approach, the classification models, generated as logistic regression models using single covariates or combinations of covariates, were evaluated by ROC analysis to determine which model and corresponding sets of covariates led to the most accurate classification of drugs according to their potential to cause IDILI. An ROC curve was created for each model by graphing the true positive rate (sensitivity; i.e., proportion of drugs correctly classified as associated with IDILI) against the false positive rate (1-specificity; i.e., proportion of drugs incorrectly classified as associated with IDILI) at various probability cutoff thresholds (k). […] An area under the curve (AUC) and confidence interval was computed for each ROC curve (where each logistic regression model has one ROC curve). […] Corresponding to each ROC curve is an optimal threshold value (k*), the threshold yielding the highest point of accuracy on the curve (i.e., the point nearest the point […] on the curve). Thus, each ROC curve has a corresponding AUC and an optimal cutoff (k*) that corresponds to the highest point of accuracy on that ROC curve.

[4] = categorical, Delta threshold 10 LDH percentage points
[5] = maximal LDH response, 24 h, read-out: max
[6] = categorical, Delta threshold 10 LDH percentage points, read-out: D10

Structure (SMILES)	True classification [1]	IDILI liability [1]	Cmax [2]	R10 (HepG2 cells)	R10 IFN (HepG2 cells)	R10 TNF (HepG2 cells)	R10 TNF/IFN (HepG2 cells)	Deltadiff (HepG2 cells)	cytotoxic interaction of drug with TNF (HepG2 cells; HepG2, 24 h)	cytotoxicity of drug on its own (LDH release) (HepG2 cells; HepG2, 24 h)	D10 (LDH rise of at least 10 points, yes/no) (HepG2 cells; [4])	Emax (HepG2 cells; [5])	TNF change (HepG2 cells; categorical)	EC10 (HepG2 cells)	EC10 TNF (HepG2 cells)	EC10 TNF/IFN (HepG2 cells)	Estimated probability [3]	pattern of liver injury in humans [1]	Emax (HepG2 cells; [6])	classification by the best-performing model [3]	other results
COc1cccc2c1C(=O)c1c(O)c3c(c(O)c1C2=O)C[C@@](O)(C(=O)CO)C[C@@H]3O[C@H]1C[C@H](N)[C@H](O)[C@H](C)O1 [Doxorubicin]	IDILI+	IDILI+	1 µM	12.4 [drug]/Cmax	9.7 [drug]/Cmax	2.0 [drug]/Cmax	0.7 [drug]/Cmax	−15.2	TNF significantly enhanced the cytotoxicity	statistically significant increase in LDH release	> 10%	113%	0	12.0 [drug]/Cmax	1.7 [drug]/Cmax	0.6 [drug]/Cmax	0.8839	–	–	–	–
Cc1onc(-c2c(F)cccc2Cl)c1C(=O)N[C@@H]1C(=O)N2[C@@H]1SC(C)(C)[C@@H]2C(=O)O [Flucloxacillin]	IDILI+	IDILI+	72.6 µM	0 [drug]/Cmax	0 [drug]/Cmax	0 [drug]/Cmax	0 [drug]/Cmax	0	no statistically significant increase in LDH	no statistically significant increase in LDH	–	17.9%	0	–	–	–	0.1545	cholestatic rather than hepatocellular	< 10%	incorrectly classified as not associated with IDILI	synergy with cytokines to kill HepG2 cells (HepG2 cells; HepG2, 24 h, TNF and/or IFN): did not synergize with cytokines to kill HepG2 cells; calculated probability for association with IDILI ([3]; best-performing classification model): 0.154
CN(C)CCCN1c2ccccc2Sc2ccc(Cl)cc21 [Chlorpromazine]	IDILI+	IDILI+	0.84 µM	36.0 [drug]/Cmax	34.8 [drug]/Cmax	31.5 [drug]/Cmax	25.3 [drug]/Cmax	−15.3	TNF significantly enhanced the cytotoxicity	statistically significant increase in LDH release	> 10%	111%	–	35.8 [drug]/Cmax	30.5 [drug]/Cmax	24.1 [drug]/Cmax	0.961	–	–	–	effect of IFN coexposure on the drug/TNF cytotoxic interaction (HepG2 cells; HepG2, 24 h): coexposure to IFN enhanced the cytotoxic interaction; EC10 IFN (HepG2 cells): 34.1 [drug]/Cmax
NNC(=O)c1ccncc1 [Isoniazid]	IDILI+	IDILI+	77 µM	440.9 [drug]/Cmax	434.0 [drug]/Cmax	268.1 [drug]/Cmax	208.7 [drug]/Cmax	38.8	TNF significantly enhanced the cytotoxicity	statistically significant increase in LDH release	> 10%	57.7%	0	427.0 [drug]/Cmax	248.0 [drug]/Cmax	169.7 [drug]/Cmax	0.7562	–	–	–	effect of IFN coexposure on the drug/TNF cytotoxic interaction (HepG2 cells; HepG2, 24 h): coexposure to IFN enhanced the cytotoxic interaction; EC10 IFN (HepG2 cells): 420.5 [drug]/Cmax
O=C(O)[C@H]1/C(=C/CO)O[C@@H]2CC(=O)N21 [Clavulanate]	IDILI+	IDILI+	12 µM	0 [drug]/Cmax	0 [drug]/Cmax	0 [drug]/Cmax	0 [drug]/Cmax	3.1	interacted only weakly with TNF	caused no cytotoxicity on their own	–	17.4%	0	–	–	–	0.9509	cholestatic pattern of injury	< 10%	correctly as IDILI1	cytotoxic interaction of drug with TNF (HepG2 cells; HepG2, 24 h, listed as clavulanate): synergized with TNF to cause cytotoxicity; also recorded: small but statistically significant
